System: 233499-124-R-J3-PDC spheroids with HUVEC/MSC, viability
Experiment: Anticancer human tumor 233499-124-R-J3-PDC patient-derived colon adenocarcinoma cell line growth inhibition [PI3K]
Conditions: for IC50: curve of first compound; for viability, T/C: stronger effect = lower value
Summary of the method: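 Complex 3D spheroids (cancer cells + endothelial HUVEC + mesenchymal stem cells); drug pairs of targeted agent x inavolisib/alpelisib/duvelisib/copanlisib; half-log series from ~Cmax, max 10 microM if Cmax unknown; endpoint viability.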

[1] = second compound 0.0316 µM, first compound 0.0316 µM
[2] = second compound 0.0316 µM, first compound 0.1 µM
[3] = second compound 0.0316 µM, first compound 0.316 µM
[4] = second compound 0.0316 µM, first compound 1 µM
[5] = second compound 0.0316 µM, first compound 3.16 µM
[6] = second compound 0.0316 µM, first compound 10 µM
[7] = second compound 0.1 µM, first compound 0.0316 µM
[8] = second compound 0.1 µM, first compound 0.1 µM
[9] = second compound 0.1 µM, first compound 0.316 µM
[10] = second compound 0.1 µM, first compound 1 µM
[11] = second compound 0.1 µM, first compound 3.16 µM
[12] = second compound 0.1 µM, first compound 10 µM
[13] = second compound 0.316 µM, first compound 0.0316 µM
[14] = second compound 0.316 µM, first compound 0.1 µM
[15] = second compound 0.316 µM, first compound 0.316 µM
[16] = second compound 0.316 µM, first compound 1 µM
[17] = second compound 0.316 µM, first compound 3.16 µM
[18] = second compound 0.316 µM, first compound 10 µM
[19] = second compound 1 µM, first compound 0.0316 µM
[20] = second compound 1 µM, first compound 0.1 µM
[21] = second compound 1 µM, first compound 0.316 µM
[22] = second compound 1 µM, first compound 1 µM
[23] = second compound 1 µM, first compound 3.16 µM
[24] = second compound 1 µM, first compound 10 µM
[25] = second compound 3.16 µM, first compound 0.0316 µM
[26] = second compound 3.16 µM, first compound 0.1 µM
[27] = second compound 3.16 µM, first compound 0.316 µM
[28] = second compound 3.16 µM, first compound 1 µM
[29] = second compound 3.16 µM, first compound 3.16 µM
[30] = second compound 3.16 µM, first compound 10 µM
[31] = second compound 10 µM, first compound 0.0316 µM
[32] = second compound 10 µM, first compound 0.1 µM
[33] = second compound 10 µM, first compound 0.316 µM
[34] = second compound 10 µM, first compound 1 µM
[35] = second compound 10 µM, first compound 3.16 µM
[36] = second compound 10 µM, first compound 10 µM
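Note: spheroids exposed to agents for seven days before readout.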
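Throughout, for viability, T/C: percent viability relative to DMSO vehicle control taken as 100%.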

CC(C)NCC(C(=O)N1CCN(c2ncnc3c2C(C)CC3O)CC1)c1ccc(Cl)cc1 (stereo unspecified) + Cc1nc(NC(=O)N2CCCC2C(N)=O)sc1-c1ccnc(C(C)(C)C(F)(F)F)c1 gave an IC50 (second compound 0.0316 µM) greater than 10000 nM, an IC50 (second compound 0.1 µM) greater than 10000 nM and an IC50 (second compound 0.316 µM) greater than 10000 nM. For the same compound, the IC50 (second compound 1 µM) was greater than 10000 nM, the IC50 (second compound 3.16 µM) was 1190 nM and the IC50 (second compound 10 µM) was less than 31.6 nM. The viability, T/C [1] was 95.8%, the viability, T/C [2] was 104% and the viability, T/C [3] was 94.6%. It also gave a viability, T/C [4] of 86.5%, a viability, T/C [5] of 94.3% and a viability, T/C [6] of 56.5%. For the same compound, the viability, T/C [7] was 91.3%, the viability, T/C [8] was 94.7% and the viability, T/C [9] was 96.4%. The viability, T/C [10] was 83.2%, the viability, T/C [11] was 91.6% and the viability, T/C [12] was 51.4%. It also gave a viability, T/C [13] of 87.3%, a viability, T/C [14] of 82.3% and a viability, T/C [15] of 80.7%. The viability, T/C [16] was 76.6%, the viability, T/C [17] was 74.1% and the viability, T/C [18] was 72.8%. It also gave a viability, T/C [19] of 84.5%, a viability, T/C [20] of 75% and a viability, T/C [21] of 60.7%. The viability, T/C [22] was 71.7%, the viability, T/C [23] was 73.4% and the viability, T/C [24] was 62.1%. For the same compound, the viability, T/C [25] was 63.1%, the viability, T/C [26] was 29.6% and the viability, T/C [27] was 69.9%. The viability, T/C [28] was 59%, the viability, T/C [29] was 33.6% and the viability, T/C [30] was 43%. It also gave a viability, T/C [31] of 22.1%, a viability, T/C [32] of 19.2% and a viability, T/C [33] of 28.3%. The viability, T/C [34] was 22.6%, the viability, T/C [35] was 31.3% and the viability, T/C [36] was 23.9%.

CC1(C)CCC(Nc2ncc(C(F)(F)F)c(-c3c[nH]c4c(P(C)(C)=O)c(C#N)ccc34)n2)CN1 (stereo unspecified) + CC(Nc1ncnc2nc[nH]c12)c1cc2cccc(Cl)c2c(=O)n1-c1ccccc1 showed an IC50 (second compound 0.0316 µM) of 202 nM, an IC50 (second compound 0.1 µM) of 210 nM and an IC50 (second compound 0.316 µM) of 90.3 nM. The IC50 (second compound 1 µM) was 170 nM, the IC50 (second compound 3.16 µM) was 273 nM and the IC50 (second compound 10 µM) was less than 31.6 nM. The viability, T/C [1] was 88.8%, the viability, T/C [2] was 52.3% and the viability, T/C [3] was 40%. The viability, T/C [4] was 50.8%, the viability, T/C [5] was 25.2% and the viability, T/C [6] was 20.1%. For the same compound, the viability, T/C [7] was 93%, the viability, T/C [8] was 50.4% and the viability, T/C [9] was 49%. It also gave a viability, T/C [10] of 30.9%, a viability, T/C [11] of 29.8% and a viability, T/C [12] of 6.77%. It also gave a viability, T/C [13] of 66.7%, a viability, T/C [14] of 46% and a viability, T/C [15] of 30.7%. For the same compound, the viability, T/C [16] was 32.2%, the viability, T/C [17] was 34% and the viability, T/C [18] was 10.2%. It also gave a viability, T/C [19] of 81.8%, a viability, T/C [20] of 50.5% and a viability, T/C [21] of 51%. For the same compound, the viability, T/C [22] was 28.2%, the viability, T/C [23] was 22.7% and the viability, T/C [24] was 22.6%. For the same compound, the viability, T/C [25] was 75.9%, the viability, T/C [26] was 67.2% and the viability, T/C [27] was 46.8%. For the same compound, the viability, T/C [28] was 27.5%, the viability, T/C [29] was 23.2% and the viability, T/C [30] was 4.38%. For the same compound, the viability, T/C [31] was 52.3%, the viability, T/C [32] was 36.4% and the viability, T/C [33] was 49.6%. For the same compound, the viability, T/C [34] was 20.7%, the viability, T/C [35] was 38.8% and the viability, T/C [36] was 6.16%.

For CC(C)NCC(C(=O)N1CCN(c2ncnc3c2C(C)CC3O)CC1)c1ccc(Cl)cc1 (stereo unspecified) + CC(Nc1ncnc2nc[nH]c12)c1cc2cccc(Cl)c2c(=O)n1-c1ccccc1, the IC50 (second compound 0.0316 µM) was greater than 10000 nM, the IC50 (second compound 0.1 µM) was greater than 10000 nM and the IC50 (second compound 0.316 µM) was greater than 10000 nM. It also gave an IC50 (second compound 1 µM) greater than 10000 nM, an IC50 (second compound 3.16 µM) greater than 10000 nM and an IC50 (second compound 10 µM) greater than 10000 nM. The viability, T/C [1] was 86.1%, the viability, T/C [2] was 100% and the viability, T/C [3] was 94.8%. For the same compound, the viability, T/C [4] was 94.8%, the viability, T/C [5] was 77.1% and the viability, T/C [6] was 74.5%. It also gave a viability, T/C [7] of 93.3%, a viability, T/C [8] of 96.7% and a viability, T/C [9] of 77.6%. It also gave a viability, T/C [10] of 83.8%, a viability, T/C [11] of 110% and a viability, T/C [12] of 87.4%. It also gave a viability, T/C [13] of 95.7%, a viability, T/C [14] of 102% and a viability, T/C [15] of 95.8%. The viability, T/C [16] was 87.8%, the viability, T/C [17] was 86.9% and the viability, T/C [18] was 71.9%. It also gave a viability, T/C [19] of 91.1%, a viability, T/C [20] of 88.3% and a viability, T/C [21] of 88.1%. The viability, T/C [22] was 106%, the viability, T/C [23] was 82.1% and the viability, T/C [24] was 65.2%. The viability, T/C [25] was 91%, the viability, T/C [26] was 93.6% and the viability, T/C [27] was 96.9%. For the same compound, the viability, T/C [28] was 85.7%, the viability, T/C [29] was 81.1% and the viability, T/C [30] was 77.5%. For the same compound, the viability, T/C [31] was 78%, the viability, T/C [32] was 89.9% and the viability, T/C [33] was 87.4%. It also gave a viability, T/C [34] of 68.8%, a viability, T/C [35] of 99.5% and a viability, T/C [36] of 88%.

For CCN1CCN(Cc2ccc(Nc3ncc(F)c(-c4cc(F)c5nc(C)n(C(C)C)c5c4)n3)nc2)CC1, the viability, T/C (compound 0.01 µM) was 88.5% [middle of 4 runs], the viability, T/C (compound 0.0316 µM) was 85.6% [middle of 4 runs] and the viability, T/C (compound 0.1 µM) was 93.8% [middle of 4 runs]. For the same compound, the viability, T/C (compound 0.316 µM) was 58.9% [middle of 4 runs] and the viability, T/C (compound 1 µM) was 38.2% [middle of 4 runs].
